In patent publication US5034512A, “Branched backbone renin inhibitors” (Warner-Lambert Company, priority 1988, dated 1991):

target: T1, renin (Homo sapiens, UniProt P00797); experiment: in vitro renin inhibitory activity, radioimmunoassay for angiotensin I; assay type: biochemical; conditions: 10^-6 M test compound; renin incubated two hours at 37° with angiotensinogen
T1 sequence (P00797 67-406): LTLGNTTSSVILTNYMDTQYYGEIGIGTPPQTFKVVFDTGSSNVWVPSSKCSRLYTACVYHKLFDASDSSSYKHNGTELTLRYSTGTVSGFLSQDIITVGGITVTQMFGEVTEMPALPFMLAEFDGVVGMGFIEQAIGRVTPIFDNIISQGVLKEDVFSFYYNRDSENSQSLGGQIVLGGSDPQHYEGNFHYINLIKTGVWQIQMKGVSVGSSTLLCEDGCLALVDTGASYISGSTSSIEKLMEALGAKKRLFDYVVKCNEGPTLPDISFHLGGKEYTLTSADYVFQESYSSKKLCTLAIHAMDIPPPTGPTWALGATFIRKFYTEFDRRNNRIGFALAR
Experimental: The effectiveness of the aforementioned compound is determined by a test for in vitro renin inhibitory activity. This activity is determined by a standard radioimmunoassay for angiotensin I. In this assay the enzyme, renin, incubated for two hours at 37° in the presence of a substrate, angiotensinogen, generates the product, angiotensin I. Test compounds are added to the incubation mixture. Relative activity is reported as the IC50, which is the molar concentration of test compound causing a 50% inhibition of the renin activity. Relative activity is also reported as % inhibition at 10^-6 M,

Q: How did the inhibition at 1 µM turn out when `CNC(=O)CCNC(=O)C[C@H](NC(=O)C(Cc1cccc2ccccc12)Cc1cccc2ccccc12)C(=O)N[C@@H](CC1CCCCC1)[C@@H](O)CC(=O)N[C@@H](CC(C)C)C(=O)NCc1ccccc1` [Example 6] was run?
A: 47%

same assay, conditions: renin incubated two hours at 37° with angiotensinogen; read-out: IC50 (molar concentration of test compound causing a 50% inhibition of the renin activity)

Q: How did the IC50 turn out when `CC[C@H](C)CNC(=O)C[C@H](O)[C@H](CC(C)C)NC(=O)[C@H](CCCCNC(=O)CCNC(C)=O)NC(=O)C(Cc1cccc2ccccc12)Cc1cccc2ccccc12` [Example 16] was run?
A: 25 nM

Q: Which IC50 does the source give for `CC[C@H](C)CNC(=O)C[C@H](O)[C@H](CC(C)C)NC(=O)[C@H](CCCCNC(=O)CNC(=O)C(F)F)NC(=O)C(Cc1cccc2ccccc12)Cc1cccc2ccccc12` [Example 18] here?
A: 62 nM

Q: For `CC[C@H](C)CNC(=O)C[C@H](O)[C@H](CC(C)C)NC(=O)[C@H](CCCCNC(=O)CNC(=O)C(C)C)NC(=O)C(Cc1cccc2ccccc12)Cc1cccc2ccccc12` [Example 17], which IC50 is on record?
A: 74 nM

Q: With `CC[C@H](C)CNC(=O)C[C@H](O)[C@H](CC(C)C)NC(=O)[C@H](CCCCNC(=O)CN)NC(=O)C(Cc1cccc2ccccc12)Cc1cccc2ccccc12` [Example 9] as the compound, how does the IC50 read?
A: 710 nM

Q: For `CC[C@H](C)CNC(=O)C[C@H](O)[C@H](CC(C)C)NC(=O)[C@H](CCCCNC(=O)CNC(=S)NC)NC(=O)C(Cc1cccc2ccccc12)Cc1cccc2ccccc12` [Example 10], which IC50 is on record?
A: 80 nM

Q: For `CC[C@H](C)CNC(=O)C[C@H](O)[C@H](CC(C)C)NC(=O)[C@H](CCCCNC(=O)[C@@H]1CS(=O)(=O)CN1C(C)=O)NC(=O)C(Cc1cccc2ccccc12)Cc1cccc2ccccc12` [Example 14], which IC50 is on record?
A: 470 nM

Q: For `CC[C@H](C)CNC(=O)C[C@H](O)[C@H](CC(C)C)NC(=O)[C@H](CCCCNC(=O)[C@@H]1CSCN1C(C)=O)NC(=O)C(Cc1cccc2ccccc12)Cc1cccc2ccccc12` [Example 13], which IC50 is on record?
A: 1100 nM

Q: Which IC50 does the source give for `CC[C@H](C)CNC(=O)C[C@H](O)[C@H](CC(C)C)NC(=O)[C@H](CCC(=O)NCC(=S)NC)NC(=O)C(Cc1cccc2ccccc12)Cc1cccc2ccccc12` [Example 1] here?
A: 9000 nM

Q: With `CC[C@H](C)CNC(=O)C[C@H](O)[C@H](CC(C)C)NC(=O)[C@H](CCCCNC(=O)CNC(=O)OCc1ccccc1)NC(=O)C(Cc1cccc2ccccc12)Cc1cccc2ccccc12` [Example 8] as the compound, how does the IC50 read?
A: 83 nM

Q: With `CC[C@H](C)CNC(=O)C[C@H](O)[C@H](CC(C)C)NC(=O)[C@H](CCCCNC(=O)CNC(N)=N[N+](=O)[O-])NC(=O)C(Cc1cccc2ccccc12)Cc1cccc2ccccc12` [Example 19] as the compound, how does the IC50 read?
A: 8 nM

Q: How did the IC50 turn out when `COC(=O)[C@H](CCS(C)(=O)=O)NC(=O)C[C@H](NC(=O)C(Cc1cccc2ccccc12)Cc1cccc2ccccc12)C(=O)N[C@@H](CC1CCCCC1)[C@@H](O)CC(=O)N[C@@H](CC(C)C)C(=O)NCc1ccccc1` [Example 3] was run?
A: 3500 nM

Q: How did the IC50 turn out when `CC[C@H](C)CNC(=O)C[C@H](O)[C@H](CC(C)C)NC(=O)[C@H](CCCCNC(=O)[C@@H]1CCC(=O)N1)NC(=O)C(Cc1cccc2ccccc12)Cc1cccc2ccccc12` [Example 15] was run?
A: 43 nM

Q: For `CC[C@H](C)CNC(=O)C[C@H](O)[C@H](CC(C)C)NC(=O)[C@H](CCCCNC(=O)CNC(=NC#N)NC)NC(=O)C(Cc1cccc2ccccc12)Cc1cccc2ccccc12` [Example 20], which IC50 is on record?
A: 30 nM

Q: `CNC(=S)CNC(=O)C[C@H](NC(=O)C(Cc1cccc2ccccc12)Cc1cccc2ccccc12)C(=O)N[C@@H](CC1CCCCC1)[C@@H](O)CC(=O)N[C@@H](CC(C)C)C(=O)NCc1ccccc1` [Example 5] was tested. Which IC50 did it give?
A: 240 nM

Q: With `CC[C@H](C)CNC(=O)C[C@H](O)[C@H](CC(C)C)NC(=O)[C@H](CCC(=O)NCC(=O)NC)NC(=O)C(Cc1cccc2ccccc12)Cc1cccc2ccccc12` [Example 2] as the compound, how does the IC50 read?
A: 15000 nM

Q: `CC[C@H](C)CNC(=O)C[C@H](O)[C@H](CC1CCCCC1)NC(=O)[C@H](CCCCNC(=O)CNC(C)=O)NC(=O)C(Cc1cccc2ccccc12)Cc1cccc2ccccc12` [Example 12] was tested. Which IC50 did it give?
A: 27 nM
